Experimental data reported in ChEMBL document CHEMBL3124843, “Synthesis, cytostatic, antimicrobial, and anti-HCV activity of 6-substituted 7-(het)aryl-7-deazapurine ribonucleosides” (J Med Chem, 2014).

System: Mycobacterium tuberculosis
Experiment: Antimycobacterial activity against Mycobacterium bovis BCG after 5 days by MTT assay
Assay type: functional, organism-based
Conditions: variant bovis BCG, 120 h

Compound	IC50 [µM]
Cc1ncnc2c1ccn2[C@@H]1O[C@H](CO)[C@@H](O)[C@H]1O	0.3
Nc1ncnc2c1c(-c1ccco1)cn2[C@@H]1O[C@H](CO)[C@@H](O)[C@H]1O	17.4
Nc1ncnc2c1c(-c1cccs1)cn2[C@@H]1O[C@H](CO)[C@@H](O)[C@H]1O	4.73
O=c1[nH]cnc2c1c(-c1cccs1)cn2[C@@H]1O[C@H](CO)[C@@H](O)[C@H]1O	> 100
Cc1nc(N)c2c(I)cn([C@@H]3O[C@H](CO)[C@@H](O)[C@H]3O)c2n1	> 100
COc1nc(N)nc2c1c(-c1ccco1)cn2[C@@H]1O[C@H](CO)[C@@H](O)[C@H]1O	> 100
COc1nc(N)nc2c1c(-c1ccoc1)cn2[C@@H]1O[C@H](CO)[C@@H](O)[C@H]1O	> 100
COc1nc(N)nc2c1c(-c1cccs1)cn2[C@@H]1O[C@H](CO)[C@@H](O)[C@H]1O	> 100
COc1nc(N)nc2c1c(-c1ccsc1)cn2[C@@H]1O[C@H](CO)[C@@H](O)[C@H]1O	> 100
COc1nc(N)nc2c1c(-c1ccccc1)cn2[C@@H]1O[C@H](CO)[C@@H](O)[C@H]1O	> 100
COc1nc(N)nc2c1c(-c1cc3ccccc3o1)cn2[C@@H]1O[C@H](CO)[C@@H](O)[C@H]1O	> 100
C#Cc1cn([C@@H]2O[C@H](CO)[C@@H](O)[C@H]2O)c2nc(N)nc(OC)c12	> 100
Nc1nc2c(c(-c3ccco3)cn2[C@@H]2O[C@H](CO)[C@@H](O)[C@H]2O)c(=O)[nH]1	> 100
Nc1nc2c(c(-c3ccoc3)cn2[C@@H]2O[C@H](CO)[C@@H](O)[C@H]2O)c(=O)[nH]1	> 100
Nc1nc2c(c(-c3cccs3)cn2[C@@H]2O[C@H](CO)[C@@H](O)[C@H]2O)c(=O)[nH]1	> 100
Nc1nc2c(c(-c3ccsc3)cn2[C@@H]2O[C@H](CO)[C@@H](O)[C@H]2O)c(=O)[nH]1	> 100
Nc1nc2c(c(-c3ccccc3)cn2[C@@H]2O[C@H](CO)[C@@H](O)[C@H]2O)c(=O)[nH]1	> 100
Nc1nc2c(c(-c3cc4ccccc4o3)cn2[C@@H]2O[C@H](CO)[C@@H](O)[C@H]2O)c(=O)[nH]1	> 100
O=c1[nH]cnc2c1c(-c1ccco1)cn2[C@@H]1O[C@H](CO)[C@@H](O)[C@H]1O	> 100
O=c1[nH]cnc2c1c(-c1ccoc1)cn2[C@@H]1O[C@H](CO)[C@@H](O)[C@H]1O	> 100
O=c1[nH]cnc2c1c(-c1ccsc1)cn2[C@@H]1O[C@H](CO)[C@@H](O)[C@H]1O	> 100

Compound	IC50 [µM]
O=c1[nH]cnc2c1c(-c1ccccc1)cn2[C@@H]1O[C@H](CO)[C@@H](O)[C@H]1O	> 100
O=c1[nH]cnc2c1c(-c1cc3ccccc3o1)cn2[C@@H]1O[C@H](CO)[C@@H](O)[C@H]1O	> 100
Nc1nc(N)c2c(-c3ccco3)cn([C@@H]3O[C@H](CO)[C@@H](O)[C@H]3O)c2n1	84
Nc1nc(N)c2c(-c3ccoc3)cn([C@@H]3O[C@H](CO)[C@@H](O)[C@H]3O)c2n1	71.5
Nc1nc(N)c2c(-c3cccs3)cn([C@@H]3O[C@H](CO)[C@@H](O)[C@H]3O)c2n1	2.44
Nc1nc(N)c2c(-c3ccsc3)cn([C@@H]3O[C@H](CO)[C@@H](O)[C@H]3O)c2n1	> 100
Nc1nc(N)c2c(-c3ccccc3)cn([C@@H]3O[C@H](CO)[C@@H](O)[C@H]3O)c2n1	8.53
Nc1nc(N)c2c(-c3cc4ccccc4o3)cn([C@@H]3O[C@H](CO)[C@@H](O)[C@H]3O)c2n1	24.6
Cc1nc(N)c2c(-c3ccco3)cn([C@@H]3O[C@H](CO)[C@@H](O)[C@H]3O)c2n1	> 100
Cc1nc(N)c2c(-c3ccoc3)cn([C@@H]3O[C@H](CO)[C@@H](O)[C@H]3O)c2n1	> 100
Cc1nc(N)c2c(-c3cccs3)cn([C@@H]3O[C@H](CO)[C@@H](O)[C@H]3O)c2n1	82.7
Cc1nc(N)c2c(-c3ccsc3)cn([C@@H]3O[C@H](CO)[C@@H](O)[C@H]3O)c2n1	> 100
Cc1nc(N)c2c(-c3ccccc3)cn([C@@H]3O[C@H](CO)[C@@H](O)[C@H]3O)c2n1	> 100
Cc1nc(N)c2c(-c3cc4ccccc4o3)cn([C@@H]3O[C@H](CO)[C@@H](O)[C@H]3O)c2n1	> 100
C#Cc1cn([C@@H]2O[C@H](CO)[C@@H](O)[C@H]2O)c2nc(C)nc(N)c12	> 100
Cc1nc(N)c2ccn([C@@H]3O[C@H](CO)[C@@H](O)[C@H]3O)c2n1	> 100
CNc1ncnc2c1ccn2[C@@H]1O[C@H](CO)[C@@H](O)[C@H]1O	87.1
CN(C)c1ncnc2c1c(-c1ccco1)cn2[C@@H]1O[C@H](CO)[C@@H](O)[C@H]1O	> 100
CN(C)c1ncnc2c1c(-c1ccoc1)cn2[C@@H]1O[C@H](CO)[C@@H](O)[C@H]1O	> 100
CN(C)c1ncnc2c1c(-c1cccs1)cn2[C@@H]1O[C@H](CO)[C@@H](O)[C@H]1O	> 100
CN(C)c1ncnc2c1c(-c1ccsc1)cn2[C@@H]1O[C@H](CO)[C@@H](O)[C@H]1O	> 100

Compound	IC50 [µM]
CN(C)c1ncnc2c1c(-c1ccccc1)cn2[C@@H]1O[C@H](CO)[C@@H](O)[C@H]1O	> 100
CN(C)c1ncnc2c1c(-c1cc3ccccc3o1)cn2[C@@H]1O[C@H](CO)[C@@H](O)[C@H]1O	> 100
C#Cc1cn([C@@H]2O[C@H](CO)[C@@H](O)[C@H]2O)c2ncnc(N(C)C)c12	> 100
CN(C)c1ncnc2c1ccn2[C@@H]1O[C@H](CO)[C@@H](O)[C@H]1O	> 100
CN(C)c1ncnc2c1c(I)cn2[C@@H]1O[C@H](CO)[C@@H](O)[C@H]1O	> 100
Cc1ncnc2c1c(-c1ccco1)cn2[C@@H]1O[C@H](CO)[C@@H](O)[C@H]1O	38.9
Cc1ncnc2c1c(-c1ccoc1)cn2[C@@H]1O[C@H](CO)[C@@H](O)[C@H]1O	9.3
Cc1ncnc2c1c(-c1cccs1)cn2[C@@H]1O[C@H](CO)[C@@H](O)[C@H]1O	14
Cc1ncnc2c1c(-c1ccsc1)cn2[C@@H]1O[C@H](CO)[C@@H](O)[C@H]1O	18.5
Cc1ncnc2c1c(-c1ccccc1)cn2[C@@H]1O[C@H](CO)[C@@H](O)[C@H]1O	26.5
Cc1ncnc2c1c(-c1cc3ccccc3o1)cn2[C@@H]1O[C@H](CO)[C@@H](O)[C@H]1O	2.1
C#Cc1cn([C@@H]2O[C@H](CO)[C@@H](O)[C@H]2O)c2ncnc(C)c12	42.9
Cc1ncnc2c1c(I)cn2[C@@H]1O[C@H](CO)[C@@H](O)[C@H]1O	51.4
Cc1ncnc2c1c(Br)cn2[C@@H]1O[C@H](CO)[C@@H](O)[C@H]1O	20.8
COc1ncnc2c1c(-c1ccccc1)cn2[C@@H]1O[C@H](CO)[C@@H](O)[C@H]1O	> 100
COc1ncnc2c1c(-c1cc3ccccc3o1)cn2[C@@H]1O[C@H](CO)[C@@H](O)[C@H]1O	73.5
C#Cc1cn([C@@H]2O[C@H](CO)[C@@H](O)[C@H]2O)c2ncnc(OC)c12	> 100
COc1ncnc2c1c(I)cn2[C@@H]1O[C@H](CO)[C@@H](O)[C@H]1O	> 100
CSc1ncnc2c1c(-c1ccco1)cn2[C@@H]1O[C@H](CO)[C@@H](O)[C@H]1O	> 100
CSc1ncnc2c1c(-c1ccoc1)cn2[C@@H]1O[C@H](CO)[C@@H](O)[C@H]1O	> 100
CSc1ncnc2c1c(-c1cccs1)cn2[C@@H]1O[C@H](CO)[C@@H](O)[C@H]1O	> 100

Compound	IC50 [µM]
CSc1ncnc2c1c(-c1ccsc1)cn2[C@@H]1O[C@H](CO)[C@@H](O)[C@H]1O	98.6
CSc1ncnc2c1c(-c1ccccc1)cn2[C@@H]1O[C@H](CO)[C@@H](O)[C@H]1O	> 100
CSc1ncnc2c1c(-c1cc3ccccc3o1)cn2[C@@H]1O[C@H](CO)[C@@H](O)[C@H]1O	> 100
C#Cc1cn([C@@H]2O[C@H](CO)[C@@H](O)[C@H]2O)c2ncnc(SC)c12	> 100
CSc1ncnc2c1ccn2[C@@H]1O[C@H](CO)[C@@H](O)[C@H]1O	96.8
CSc1ncnc2c1c(I)cn2[C@@H]1O[C@H](CO)[C@@H](O)[C@H]1O	87.1
CNc1ncnc2c1c(-c1ccco1)cn2[C@@H]1O[C@H](CO)[C@@H](O)[C@H]1O	> 100
CNc1ncnc2c1c(-c1ccoc1)cn2[C@@H]1O[C@H](CO)[C@@H](O)[C@H]1O	> 100
CNc1ncnc2c1c(-c1cccs1)cn2[C@@H]1O[C@H](CO)[C@@H](O)[C@H]1O	> 100
CNc1ncnc2c1c(-c1ccsc1)cn2[C@@H]1O[C@H](CO)[C@@H](O)[C@H]1O	> 100
CNc1ncnc2c1c(-c1ccccc1)cn2[C@@H]1O[C@H](CO)[C@@H](O)[C@H]1O	> 100
CNc1ncnc2c1c(-c1cc3ccccc3o1)cn2[C@@H]1O[C@H](CO)[C@@H](O)[C@H]1O	> 100
C#Cc1cn([C@@H]2O[C@H](CO)[C@@H](O)[C@H]2O)c2ncnc(NC)c12	> 100
COc1ncnc2c1c(-c1ccco1)cn2[C@@H]1O[C@H](CO)[C@@H](O)[C@H]1O	> 100
COc1ncnc2c1c(-c1ccoc1)cn2[C@@H]1O[C@H](CO)[C@@H](O)[C@H]1O	> 100
COc1ncnc2c1c(-c1cccs1)cn2[C@@H]1O[C@H](CO)[C@@H](O)[C@H]1O	> 100
COc1ncnc2c1c(-c1ccsc1)cn2[C@@H]1O[C@H](CO)[C@@H](O)[C@H]1O	> 100
CNc1ncnc2c1c(I)cn2[C@@H]1O[C@H](CO)[C@@H](O)[C@H]1O	99.9
COc1ncnc2c1ccn2[C@@H]1O[C@H](CO)[C@@H](O)[C@H]1O	> 100
